# Source: patent US20250127857A1, “A COMPOSITION COMPRISING IL-36 AND/OR IL-18 FOR USE IN TREATING OCULAR DISORDERS” (THE PROVOST, FELLOWS, FOUNDATION SCHOLARS, & THE OTHER …, priority 2021, published 2025)
# Tests used:
# HRMEC [1] = assay: MTS assay of HRMEC proliferation with VEGF and IL-18; assay type: cell-based, human
# Protocol: FIG. 17 illustrates HRMEC proliferation in response to VEGF is enhanced with IL-18 pre-treatment, wherein HRMECs were treated with increasing concentrations of VEGF alone or with a 24 hour pre-treatment of IL-18 at 10, 100 or 1000 ng/ml, wherein increasing VEGF induced an increase in cell proliferation which was enhanced following IL-18 treatment;
# Cell viability was assessed using the CellTiter 96 AQueous One Solution cell proliferation MTS assay (Promega) as per the manufacturer's instructions. Cell monolayers were treated for times indicated where treatment supplemented media was then removed and incubated with 20 μl of CellTiter 96 AQueous One Solution in 100 μl of complete growth medium in a humidified incubator at 37° C. with 5% CO2for 1-4 hours. The absorbance of each well was measured at 490 nm using a SynergyMX plate reader (Biotek, Gen5™).
# HRMEC [2] = assay: Wound healing (scratch) assay in HRMEC, IL-18; assay type: cell-based, human; conditions: for mean difference in wound closure vs no treatment (xdiff): IL-18, VEGF, bFGF each 50 ng/ml, closure expressed as % closure
# Protocol: FIG. 16 illustrates HRMEC migration in response to IL-18 and IL-1α stimulation, wherein confluent HRMEC monolayers were scratched with a pipette tip and treated with IL-18 (50 ng/ml) or IL-1α (10 ng/ml) along with bFGF (50 ng/ml) or VEGF (50 ng/ml) as positive controls, wherein images were taken immediately following scratch (0 hrs) and at 4, 8 and 24 hours following scratch, wherein images were analysed using ImageJ imaging software, wherein data are presented as mean±SEM of 6 separate experiments in triplicate, wherein data were analysed using 2way ANOVA with Dunnett's multiple comparison test. (*p<0.05, *p<0.01, ****p<0.0001);
# Cells were seeded on to a 12-well plate and grown until they reached confluency. 24 hours prior to the scratch, culture medium was replaced with 0.5% Serum media without supplements for 24 hours to induce cell quiescence. Cell monolayers were scratched once down the centre of the well using a p200 pipette tip and washed once with warmed DPBS to remove debris then replaced with 0.5% serum supplemented media with experimental treatments. Images were acquired using an Olympus IX51 inverted microscope with Cell^A imaging software (Olympus). Images were taken at baseline immediately following scratch and at suitable timepoints for up to 24 (HRMECs) or 48 hours (BMVECs). The area within the scratch was quantified using ImageJ software, and each timepoint was normalised to its baseline and expressed as % closure.
# [3] = system: human ocular choroidal fibroblasts (HOCFs); assay: LDH assay of HOCF cell death; assay type: cell-based; conditions: HOCFs, 10, 100 or 1000 ng/ml IL-18 over 48 h
# Protocol: FIG. 20 illustrates IL-18 activates human ocular choroidal fibroblasts and inhibits VEGF secretion, wherein (A) is human ocular choroidal fibroblast (HOCFs) treated with IL-18 at increasing doses for 8 h, wherein cells were fixed and stained with antibody targeting intermediate filament vimentin (red), Hoechst (blue) and phalloidin (green); (B) is HOCFs treated with IL-18 (100 ng/ml) over 60 mins and immunoblotted for phospho-ERK and phospo-p65 with B-actin and GAPDH as controls; (C) is HOCFs treated with IL-18 (100 ng/ml) over 24 h as indicated, wherein cells were analysed for VEGF expression by qPCR (D) is HOCFs treated with 10, 100 or 1000 ng/ml of IL-18 as indicated over 48 h and cell death was analysed by LDH assay;
# VEGF = VEGF secretion by primary human foetal RPE (hfRPE) cells; assay type: cell-based; conditions: IL-18 1000 ng/ml, 1-72 hours
# Protocol: FIG. 14 illustrates IL-18 can inhibit VEGF secretion in vivo and in vitro, wherein JR5558 mice at 3 weeks (A) were injected (i.p.) with saline (0 μg/kg) or IL-18 (100 μg/kg) on 4 consecutive days (day 1-4), wherein retinas were isolated on day 8 and VEGF concentration in protein lysates was determined using an appropriate ELISA, wherein data are presented as mean±SEM (n=4-5 animals per each treatment group) and expressed as pg of VEGF per mg of total retinal protein as measured by the BCA assay, *p<0.05 by one-way ANOVA with Tukey post test compared to saline controls; (B) is primary human foetal RPE (hfRPE) cells were treated with control medium (0 ng/ml) or a single dose of IL-18 (1000 ng/ml) for 1 to 72 hours, wherein VEGF concentration in the cell-free supernatants was measured at each time point, wherein rate of VEGF secretion was calculated from the slope of linear regression of VEGF concentration (pg/ml) against time (hours) (C), wherein data are presented as mean±SEM and represent a single experiment carried out in triplicate *p<0.05, ***p<0.001 by Student's t test compared to control at each time point;
# IL-18BP = biological target: T1, IL-18BP (Homo sapiens, UniProt O95998); conditions: 1:1 stoichiometry; used for free IL-18 calculation (Migliorini et al., 2010); read-out: dissociation constant (Kd) of the IL-18/IL-18BP complex; cited from earlier work
# T1 sequence (O95998 31-194): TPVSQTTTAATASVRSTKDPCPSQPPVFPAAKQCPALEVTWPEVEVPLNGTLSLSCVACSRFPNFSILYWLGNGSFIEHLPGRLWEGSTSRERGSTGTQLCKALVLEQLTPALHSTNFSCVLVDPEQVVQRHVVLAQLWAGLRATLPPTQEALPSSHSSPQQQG
substance,measurement,setting,value
IL-18: recombinant human IL-18 (SB-485232; GSK),"HRMEC proliferation, IL-18 alone",HRMEC [1],able to enhance HRMEC proliferation
same,VEGF induced proliferation after IL-18 pre-treatment,"HRMEC [1]; 24 hour pre-treatment with IL-18 at 10, 100 or 1000 ng/ml",VEGF induced proliferation was increased
same,mean difference in wound closure vs no treatment (xdiff),HRMEC [2]; 8 hours post scratch,−0.99
same,mean difference in wound closure vs no treatment (xdiff),HRMEC [2]; 24 hours post scratch,−12.58
same,rate of wound closure,"HRMEC [2]; IL-18 50 ng/ml, vs no treatment control",significantly increased the rate of wound closure
same,HOCF death (LDH assay),[3],does not cause HOCF death and may enhance HOCF viability
same,VEGF concentration in cell-free supernatants,VEGF,decreased VEGF concentration at (almost) all time points examined
same,overall rate of VEGF secretion,VEGF,significantly slowed down the overall rate of VEGF secretion
same,Kd,IL-18BP,400 pM
